As a reminder, the Ki is the equilibrium dissociation constant of an inhibitor or competing ligand from its target. A word on the kcat: it is the number of substrate molecules converted per active site and unit of time at saturation.

Values joined by “and” are separate entries in the source; they are usually repeats but may differ in a detail not shown here. Equal entries are not always repeated.

One test concerns the target T1, human PYCR1 (Homo sapiens, UniProt P32322).
T1 sequence (P32322 1-300): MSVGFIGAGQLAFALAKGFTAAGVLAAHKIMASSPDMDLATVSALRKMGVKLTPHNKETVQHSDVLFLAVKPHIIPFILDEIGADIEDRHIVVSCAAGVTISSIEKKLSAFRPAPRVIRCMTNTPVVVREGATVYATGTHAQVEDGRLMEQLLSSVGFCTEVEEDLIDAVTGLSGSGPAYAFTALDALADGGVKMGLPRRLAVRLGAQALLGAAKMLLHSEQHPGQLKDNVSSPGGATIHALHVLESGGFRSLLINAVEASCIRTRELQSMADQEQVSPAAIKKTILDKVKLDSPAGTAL
As to the kind of experiment: biochemical. To be noted: for Ki: competitive with P5C, NADH fixed 175 μM. On the procedure: Over two dozen proline analogs (Fig. 2) were screened using electron density from X-ray crystallography as the readout for binding to human PYCR1. […] Because the compounds bind in the P5C/proline site, the mechanism of inhibition was assumed to be competitive with P5C. Therefore, steady-state kinetic measurements were performed with L-P5C as the variable substrate (0-1000 μM) and NADH fixed (175 μM) (Fig. 3). For each compound, the data were fit globally to a competitive inhibition model (Equation 1) to obtain an inhibition constant, Ki.
B, THFA. C, CPC. D, T4C. E, T2C. F, NFLP. The data were measured in 50 mM Tris (pH 7.5) with 1 mM EDTA disodium salt while holding NADH fixed at 175 μM and varying D,L-P5C (0–2000 μM). The concentration of the substrate L-P5C was considered to be half the total D,L-P5C concentration added to the assays. Curves represent global fits of the data to a competitive inhibition model showing initial velocity in units of µM [NAD^+] s^−1 as a function of L-P5C concentration (µM).
A C-terminal truncation variant of human PYCR1, which includes residues 1–300 of the full-length 319-residue enzyme, was used for kinetics and X-ray crystallography ([18]). PYCR1 was overexpressed in Escherichia coli BL21 (DE3) competent cells and purified using methods similar to those previously reported ([18]). Harvested cells were lysed via sonication in a mixture containing DNase I, lysozyme, and 0.2 mM phenylmethylsulfonyl fluoride protease inhibitor, and then the insoluble material was removed via centrifugation at 16,000 rpm for 1 h at 4°C. The resulting lysate was purified by gravity-flow chromatography on a column containing Ni^2+–nitrilotriacetic acid resin (Qiagen) pre-equilibrated with binding buffer consisting of 50 mM HEPES, 300 mM NaCl, 10 mM imidazole, and 5% (w/v) glycerol at pH 7.8 (buffer A). The column was washed with buffer A supplemented with 30 mM imidazole, and then the bound protein was eluted with buffer A supplemented with 300 mM imidazole. Elution fractions containing PYCR1 were identified by SDS-PAGE and prepared for further purification by size-exclusion chromatography by dialyzing into 300 mM NaCl, 2% (w/v) glycerol, and 50 mM HEPES at pH 7.5. Size-exclusion chromatography was performed on a HiLoad 16/600 Superdex 200 column equilibrated with 50 mM HEPES, pH 7.8, 300 mM NaCl, and 5% (w/v) glycerol. Purified PYCR1 was concentrated to 8 mg/ml and stored at 4°C for subsequent crystallization trials.
Kinetic measurements were performed in a BioTek Epoch 2 microplate spectrophotometer using Corning 96-well UV-transparent microplates. Activity assays were performed by monitoring the consumption of NADH at 340 nm (ε340 = 6220 M^−1 cm^−1) using P5C as the substrate. D,L-P5C was synthesized as described previously ([45]), quantified using o-aminobenzaldehyde (o-AB), and stored in 1 M HCl at 4°C. Neutralization of D,L-P5C to pH 7.5 was performed immediately prior to assays using 1 M Tris (pH 7.5) and 6 M NaOH. The concentration of the substrate L-P5C was assumed to be half the total D,L-P5C concentration added to the assays.
The following microplate protocol was employed. Substrate mixtures containing P5C, NADH, EDTA, and Tris buffer were prepared in a deep well block for each P5C concentration. Mixtures containing enzyme and various concentrations of the inhibitor were prepared in microcentrifuge tubes and incubated on ice in buffer containing 50 mM HEPES pH 7.8, 300 mM NaCl, and 5% (w/v) glycerol. The final concentration of PYCR1 in the assay was 6.25 nM. Twenty μl of the enzyme-analog mixture was added to microplate wells using a single-channel pipette, and then the reaction was initiated by addition of 180 μl of the substrate mixtures using a multi-channel pipettor. The reaction traces were followed for 35 min.

In test [1] the test system is MCF10A hRAS^V12 spheroids. As to the kind of experiment: Intracellular proline abundance in spheroids (GC-MS). The format is cell-based. To be noted: 5 mM, 5 days.
Test [2] concerns MCF10A hRAS^V12 spheroids. Nature of the test: Spheroid growth based on protein content. In kind it is cell-based. To be noted: 5 mM, 5 days.

In the case of `O=CN1CCC[C@H]1C(=O)O` [NFLP, N-formyl L-proline], the Ki on human PYCR1 (Ki (estimated), rounded values) was 100 µM and ~100 µM. Moreover, the Ki on human PYCR1 (Ki, 50 mM Tris pH 7.5, global fit) turned out to be 99 ± 7.7 µM. On human PYCR1 (NFLP relative to proline), the “binding free energy equivalent of the affinity increase” value is recorded as approximately 1.7 kcal/mol and the “increase in affinity by addition of the formyl group to proline” value is 17 fold. The kcat at human PYCR1 (kcat for L-P5C at fixed NADH 175 μM, global fit of the data set with this analog) worked out at 52 ± 2 s⁻¹. In test [1], the “increase of intracellular proline abundance compared with THFA” value was “about 10 fold” and the “increase of intracellular proline abundance compared with control” value is on record as approximately 40 fold. Also, in test [2], the “reduction of spheroid growth based on protein content compared with control” value worked out at 50%.

Values taken from paper PMC7939384, “In crystallo screening for proline analog inhibitors of the proline cycle enzyme PYCR1” (The Journal of Biological Chemistry, 2021).
